Data taken from PubChem BioAssay AID256 (DTP/NCI, 2004).
Several values for one entry are separate records, joined by “and”; a condition that tells them apart may be missing. Equal values may be shown once. Inconclusive results and toxic doses are left out. The calls were made as follows: active = survival T/C of 150% or more; inactive = T/C below 125% in these data.

Tested on: CD2F1 mice, L1210 leukemia ip, survival T/C
Assay: NCI In Vivo Anticancer Drug Screen. Data for tumor model L1210 Leukemia (intraperitoneal) in CD2F1 (CDF1) mice
Conditions: higher = longer survival
In short: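 Vehicle-treated tumor-bearing mice served as controls (C) for compound-treated mice (T). Reported figure is T divided by C.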

[1] = endpoint: mean survival time, dose: 100.0 mg/kg/injection, schedule: Q04DX003 (ip), vehicle: saline with Tween-80
[2] = endpoint: mean survival time, dose: 200.0 mg/kg/injection, schedule: Q04DX003 (ip), vehicle: saline with Tween-80
[3] = endpoint: mean survival time, dose: 400.0 mg/kg/injection, schedule: Q04DX003 (ip), vehicle: saline with Tween-80
[4] = endpoint: mean survival time, dose: 25.0 mg/kg/injection, schedule: Q01DX009 (ip), vehicle: saline with Tween-80
[5] = endpoint: mean survival time, dose: 50.0 mg/kg/injection, schedule: Q01DX009 (ip), vehicle: saline with Tween-80
[6] = endpoint: mean survival time, dose: 100.0 mg/kg/injection, schedule: Q01DX009 (ip), vehicle: saline with Tween-80
[7] = endpoint: mean survival time, dose: 200.0 mg/kg/injection, schedule: Q01DX009 (ip), vehicle: saline with Tween-80
[8] = endpoint: mean survival time, dose: 100.0 mg/kg/injection, schedule: Q04DX002 (ip), vehicle: saline with Tween-80
[9] = endpoint: mean survival time, dose: 200.0 mg/kg/injection, schedule: Q04DX002 (ip), vehicle: saline with Tween-80
[10] = endpoint: mean survival time, dose: 400.0 mg/kg/injection, schedule: Q04DX002 (ip), vehicle: saline with Tween-80
[11] = endpoint: mean survival time, dose: 100.0 mg/kg/injection, schedule: Q01DX001 (ip), vehicle: saline with Tween-80
[12] = endpoint: mean survival time, dose: 200.0 mg/kg/injection, schedule: Q01DX001 (ip), vehicle: saline with Tween-80
[13] = endpoint: mean survival time, dose: 400.0 mg/kg/injection, schedule: Q01DX001 (ip), vehicle: saline with Tween-80
[14] = endpoint: mean survival time, dose: 400.0 mg/kg/injection, schedule: Q01DX009 (ip), vehicle: saline with Tween-80
[15] = endpoint: mean survival time, dose: 75.0 mg/kg/injection, schedule: Q01DX001 (ip), vehicle: saline
[16] = endpoint: mean survival time, dose: 150.0 mg/kg/injection, schedule: Q01DX001 (ip), vehicle: saline

Measured: T/C

O=C(O)c1cccc(-c2c3ccc(=O)cc-3oc3cc(O)ccc23)c1
inactive: [1] 96 % of control | [2] 100 % of control | [3] 96 % of control

COc1ccc(N=C2C=CC(=O)O2)cc1
inactive: [4] 95 % of control | [5] 100 % of control | [6] 97 % of control | [1] 101 % of control

CC1(C)N=C(N)N=C(N)N1c1cccc(CCCCc2ccc(S(=O)(=O)F)cc2)c1
inactive: endpoint: mean survival time, dose: 25.0 mg/kg/injection, schedule: Q01DX009 (ip), vehicle: saline 105 % of control

CN(C)S(=O)(=O)c1ccc(Cl)c([N+](=O)[O-])c1
inactive: endpoint: mean survival time, dose: 100.0 mg/kg/injection, schedule: Q04DX002 (ip), vehicle: Klucel (hydroxypropylcellulose) (HPC) 106 % of control | endpoint: mean survival time, dose: 200.0 mg/kg/injection, schedule: Q04DX002 (ip), vehicle: Klucel (hydroxypropylcellulose) (HPC) 106 % of control

N#Cc1c(F)c(F)cc(F)c1F
inactive: [6] 100 % of control | [1] 96 % of control | [7] 96 % of control | [2] 96 % of control | [3] 93 % of control

O=C(NC(=S)Nc1ccccc1Cl)c1ccc(Cl)cc1
inactive: [8] 103 % of control | [9] 88 % of control | [10] 88 % of control

c1ccc(/C(N=NC(c2ccccc2)(c2ccccc2)c2ccccc2)=C(/N=NC(c2ccccc2)(c2ccccc2)c2ccccc2)c2ccccc2)cc1
inactive: [11] 91 % of control | [12] 101 % of control | [13] 89 % of control

CC1(c2ccccc2)C(C#N)C(=O)NC(=O)C1C#N (centres undefined)
inactive: [6] 94 % of control | [1] 102 % of control | [7] 93 % of control | [2] 91 % of control | [3] 91 % of control

O=S(=O)(O)c1cccc2ncccc12
inactive: endpoint: mean survival time, dose: 100.0 mg/kg/injection, schedule: Q01DX001 (ip), vehicle: Klucel (hydroxypropylcellulose) (HPC) 113 % of control | endpoint: mean survival time, dose: 200.0 mg/kg/injection, schedule: Q01DX001 (ip), vehicle: Klucel (hydroxypropylcellulose) (HPC) 92 % of control | endpoint: mean survival time, dose: 400.0 mg/kg/injection, schedule: Q01DX001 (ip), vehicle: Klucel (hydroxypropylcellulose) (HPC) 95 % of control

COC(=O)c1ccccc1C(=O)c1n[nH]c2ccccc12
inactive: endpoint: mean survival time, dose: 25.0 mg/kg/injection, schedule: Q04DX002 (ip), vehicle: saline with Tween-80 103 % of control | endpoint: mean survival time, dose: 50.0 mg/kg/injection, schedule: Q04DX002 (ip), vehicle: saline with Tween-80 106 % of control | [8] 106 % of control | [9] 106 % of control

CCC[CH2][Sn]1([CH2]CCC)[N](S(=O)(=O)c2ccc(C)cc2)c2ccccc2[N]1S(=O)(=O)c1ccc(C)cc1
inactive: endpoint: mean survival time, dose: 3.13 mg/kg/injection, schedule: Q04DX002 (ip), vehicle: saline with Tween-80 94 % of control | endpoint: mean survival time, dose: 6.25 mg/kg/injection, schedule: Q04DX002 (ip), vehicle: saline with Tween-80 102 % of control | endpoint: mean survival time, dose: 12.5 mg/kg/injection, schedule: Q04DX002 (ip), vehicle: saline with Tween-80 94 % of control

O=C=Nc1cccc2c(N=C=O)cccc12
inactive: endpoint: mean survival time, dose: 12.5 mg/kg/injection, schedule: Q01DX009 (ip), vehicle: saline with Tween-80 91 % of control | [4] 102 % of control | [5] 91 % of control

Nc1ccc2oc(=O)c(C(=O)O)cc2c1
inactive: [11] 93 % of control | [12] 89 % of control

Cc1ccc(Cl)cc1NC(=O)c1ccc([N+](=O)[O-])cc1
inactive: [1] 90 % of control

CN(C)C(=O)Nc1cc(Cl)ccc1Cl
inactive: [8] 97 % of control | [9] 108 % of control | [10] 120 % of control

COP1(=O)OCC(C(C)(C)C)CO1 (centres undefined)
inactive: endpoint: mean survival time, dose: 12.5 mg/kg/injection, schedule: Q04DX002 (ip), vehicle: saline 103 % of control | endpoint: mean survival time, dose: 25.0 mg/kg/injection, schedule: Q04DX002 (ip), vehicle: saline 88 % of control

S=C(Nc1ccccc1)NC1CCCCC1
inactive: [1] 100 % of control | [2] 102 % of control | [3] 97 % of control

NCc1ccc(-c2nc3ncnc(N)c3[nH]2)cc1
inactive: endpoint: mean survival time, dose: 3.13 mg/kg/injection, schedule: Q01DX001 (ip), vehicle: saline with Tween-80 108 % of control | endpoint: mean survival time, dose: 6.25 mg/kg/injection, schedule: Q01DX001 (ip), vehicle: saline with Tween-80 102 % of control | endpoint: mean survival time, dose: 12.5 mg/kg/injection, schedule: Q01DX001 (ip), vehicle: saline with Tween-80 100 % of control and 110 % of control | endpoint: mean survival time, dose: 25.0 mg/kg/injection, schedule: Q01DX001 (ip), vehicle: saline with Tween-80 102 % of control | endpoint: mean survival time, dose: 50.0 mg/kg/injection, schedule: Q01DX001 (ip), vehicle: saline with Tween-80 109 % of control | [11] 106 % of control and 110 % of control

CC1(C)C(=O)OC(=O)C(C)(Br)C1(C)C (centres undefined)
inactive: [11] 104 % of control | [12] 96 % of control | [13] 101 % of control

O=C1/C(=C/c2ccccc2)Cc2ccccc21
inactive: [6] 94 % of control | [7] 91 % of control | [14] 89 % of control

CC1=C(/C=C/C(O)CC(O)(C(F)(F)F)C(F)(F)F)C(C)(C)CCC1 (centres undefined)
inactive: endpoint: mean survival time, dose: 100.0 mg/kg/injection, schedule: Q04DX003 (ip), vehicle: saline 107 % of control | endpoint: mean survival time, dose: 200.0 mg/kg/injection, schedule: Q04DX003 (ip), vehicle: saline 98 % of control | endpoint: mean survival time, dose: 400.0 mg/kg/injection, schedule: Q04DX003 (ip), vehicle: saline 110 % of control

CC(N)c1ccccc1 (centres undefined)
inactive: endpoint: mean survival time, dose: 37.5 mg/kg/injection, schedule: Q04DX003 (ip), vehicle: saline 98 % of control | [15] 96 % of control | endpoint: mean survival time, dose: 75.0 mg/kg/injection, schedule: Q04DX003 (ip), vehicle: saline 100 % of control | [16] 100 % of control | endpoint: mean survival time, dose: 150.0 mg/kg/injection, schedule: Q04DX003 (ip), vehicle: saline 100 % of control | endpoint: mean survival time, dose: 300.0 mg/kg/injection, schedule: Q01DX001 (ip), vehicle: saline 106 % of control

NCCN1CCCC1
inactive: endpoint: mean survival time, dose: 100.0 mg/kg/injection, schedule: Q04DX002 (ip), vehicle: saline 96 % of control | endpoint: mean survival time, dose: 200.0 mg/kg/injection, schedule: Q04DX002 (ip), vehicle: saline 111 % of control | endpoint: mean survival time, dose: 400.0 mg/kg/injection, schedule: Q04DX002 (ip), vehicle: saline 103 % of control

C[N+]1(C)CCC2=CC3C=CC2C1C=C3 (centres undefined)
inactive: endpoint: median survival time, dose: 25.0 mg/kg/injection, schedule: Q04DX002 (ip), vehicle: saline with Tween-80 100 % of control | endpoint: median survival time, dose: 50.0 mg/kg/injection, schedule: Q04DX002 (ip), vehicle: saline with Tween-80 100 % of control

CCOc1ccccc1NC(=O)NCC(=O)NNC(=O)Nc1ccc(Cl)c([N+](=O)[O-])c1
inactive: [6] 92 % of control | [7] 92 % of control | [14] 97 % of control

CC(C)CCC(C(=O)O)C(=O)O
inactive: [15] 96 % of control | [16] 102 % of control

CC1(C)NC(=O)N(Br)C1=O
inactive: [6] 88 % of control | [1] 103 % of control | [7] 89 % of control | [2] 96 % of control | [3] 103 % of control

CCO/C=C1\SC(=S)N(c2cccc(OC)c2)C1=O
inactive: [1] 96 % of control | [2] 106 % of control | [3] 101 % of control
